Measurements taken from patent US20250243180A1, “TARGETED PROTEIN DEGRADATION” (Monte Rosa Therapeutics AG, priority 2023, published 2025).

Assays:
[1] = system: IL-1β; test: IL-1β in human monocyte-derived macrophages, LPS/MSU stimulation; format: cell-based; details: 24 h pre-treatment, LPS + MSU 6 h, eight donors
Experimental: Human monocytes were enriched and isolated from a buffy coat of whole blood with a RosetteSep™ Human Monocyte Enrichment Cocktail (Cat.No. 15068, StemCell) and Ficoll-Plaque PLUS (Cat.No. H8889, Sigma). Monocytes were differentiated into macrophages by treatment with 100 ng/mL M-CSF for 6 days at 37° C., 5% CO2. Differentiated macrophages were seeded overnight (50,000 cells/well) in 100 μL of medium in a 96-well white-bottom plate at 37° C., 5% CO2. Cells were treated with a concentration range of MGD or the NLRP3 inhibitor selnoflast (Cat.No. HY-132831, MedChemExpress) for 24 h prior to stimulation with monosodium urate crystals (MSU). Macrophages were stimulated with […] lipopolysaccharide (LPS) and 0.2 mg/mL MSU for 6 h. Medium of stimulated macrophages were collected and assayed for caspase-1 activity directly (Promega G9951) as well as IL-1β (Promega W6010), according to manufacturer's instructions.
(a, b) Human monocyte-derived macrophages pre-treated with a dose-response of Compound 14 or selnoflast (NLRP3 inhibitor) for 24 h and stimulated with a combination of lipopolysaccharide (LPS) and monosodium urate crystals (MSU) for 6 h prior to supernatant collection. Monocytes were isolated from eight human donors. Caspase-1 (a) and IL-1β (b) in the supernatant are measured and data are expressed as percentage relative to mean values of DMSO conditions for each donor (technical triplicates). Means of eight donors are plotted and analyzed using a four-parameter logistic regression model.

[2] = Plasma pharmacokinetics in NHP, 30 mg/kg oral for 7 days; format: in vivo; details: oral 30 mg/kg daily for 7 days, average male and female
Experimental: Naïve NHP were orally administered with 7 consecutive daily dose of Compound 14 at 30 mg/kg, n=4 per dose group, 2 male and 2 female. Compound formulation was prepared on the day of administration in 0.5% methyl cellulose (4000 cps) in water and animals were fed twice a day; water was available ad libitum. Plasma collected posted dose on Day 1 and Day 7 were analyzed using a non GLP LC/MS/MS bioanalytical method to evaluate the compound concentration. Brain samples were harvested 24 h after final dose. Lysates for different brain regions (hippocampus, frontal cortex, and cerebellum) were prepared in M-PER lysis buffer and diluted at total protein concentration of 0.4 mg/mL in 0.1× sample buffer (12-230 kDa detection module; Protein Simple). The anti-NEK7 rabbit mAb (Abcam #AB133514) was used at 1:100 and anti-β-actin rabbit mAb (CST #5125) was used at 1:500. Samples were probed for NEK7 and β-actin protein levels by JESS, and quantified relative to vehicle control.
In Table 10, concentration of Compound 14 in NHP plasma following administration via oral gavage after 7 days post dose at 30 mg/kg is reported. NHP received daily oral administration of 30 mg/kg of Compound 14 for 7 days, n=2.

[3] = system: New Zealand White rabbits, MSU crystal gout model; test: In vivo rabbit gout model (intra-articular MSU): joint swelling and CD31 staining; details: daily prophylactic treatment
Experimental: (§1) MSU crystals were prepared by dissolving uric acid (Aladdin, cat #U105582) in boiling water (1 g in 200 mL with 6 mL of 1 N NaOH). PH value was adjusted to 7.2 by HCl. The solution was stirred and cooled to room temperature and stored at 4° C. overnight. The precipitate was filtered with filter paper and dried under low heat to obtain MSU crystals. New Zealand White rabbits received an intra-articular injection of 1 mL of MSU crystals (50 mg/mL) into both knees (MSU group) or PBS (as vehicle, control group). n=10 for MSU groups; n=6 for PBS group.
For immunohistochemistry, bone sections were stained with anti-CD31 (Abcam #ab9498) diluted at 1:500. The nuclei were stained with hematoxylin. Slides were scanned using LEICA Aperio GT450 at 400× magnification. The number of positive blood vessels were counted blindly.
(§2) (a) To determine NEK7 degradation, spleens and peripheral blood mononuclear cells (PBMC) were analyzed by JESS for NEK7 and normalized to α-Tubulin from five representative animals. (b) The degree of joint swelling was determined by caliper measurements at the indicated time points. (c) Rabbit bone tissue sections were stained and quantified for anti-CD31 immunohistochemistry. Results expressed as mean±SEM. Statistical analysis was performed using two-way ANOVA. The difference was considered significant when p<0.05.

[4] = system: NEK7; test: NEK7 degradation in spleen and PBMC in rabbit gout model (JESS); format: in vivo; details: rabbits, 10 mg/kg QD×7, harvested 2 h after the final dose
Experimental: as §1, with “group. […]” for “group.”
On Day 7, tissue was harvested 2 hours post final dose. […] Lysates were prepared in M-PER lysis buffer and protein concentration was measured using Pierce rapid gold BCA protein Assay Kit (Thermo Fisher) according to manufacturer's protocol. […]
as §2, with “Statistical analysis was performed using two-way ANOVA. The difference was considered significant when p<0.05.” left out

[5] = both sexes, monkey, plasma, po, 30 mg/kg
[6] = both sexes, non-human primate (NHP)

| IC50 ([1]; Homo sapiens, Macrophage) | Cmax ([2]; both sexes, monkey) | Tmax ([2]; both sexes, monkey) | AUC0-24h [2, 5] | AUC(0-t) [2, 5] | Cmax [2, 6] | Tmax [2, 6] | tlast [2] | SMILES | IL-1β Imax [1] | CD31 staining in bone tissue [3] | joint swelling induced by intra-articular MSU injection [3] | degradation of NEK7 in spleen and PBMCs [4] |
| --- | --- | --- | --- | --- | --- | --- | --- | --- | --- | --- | --- | --- |
| 1.1 nM | 6600 ng/mL | 1.75 h | 36600 ng·h/mL | 27200 ng·h/mL | 6600 ng/mL | 1.75 h | 8 h | Cc1cnc(C(C)(C)C(=O)NCc2cc(Cl)c(C3CCC(=O)NC3=O)c(Cl)c2)nc1 (stereo not drawn) [Compound 14, N-(3,5-dichloro-4-(2,6-dioxopiperidin-3-yl)benzyl)-2-methyl-2-(5-methylpyrimidin-2-yl)-propanamide] | 70% |  |  |  |
|  |  |  |  |  |  |  |  | CC(C)(C(=O)NCc1cc(Cl)c(C2CCC(=O)NC2=O)c(Cl)c1)c1ncc(C#N)cn1 (stereo not drawn) [Compound 16, 2-(5-cyanopyrimidin-2-yl)-N-(3,5-dichloro-4-(2,6-dioxopiperidin-3-yl)benzyl)-2-methyl-propanamide] |  | improvement | improvement | greater than 50% |
